Results from US20170233414A1, “DERIVATIVES OF BODIPY” (OREGON HEALTH & SCIENCE UNIVERSITY, priority 2016, published 2017).
Like-named read-outs stand apart in the source and are kept apart here.

Test: Fluorescence properties and quantum yield measurements of the BAA library
Type: physicochemical
Design: FWHM (full-width-at half max): unit not given here
Experimental: General Instruments. Synthesized sample purification was performed with an Agilent 1260 Infinity HPLC utilizing a C18 column (150mm×21.2 mm). MS (HRMS, ESI) spectra data was collected with an Agilent 6244 TOF LC/MS with diode array detector VL+ and C18 column (4.6 mm×50 mm). Absorbance and fluorescence data were measured on a SpectraMax M5 Microplate reader. NMR spectra, ^1H and ^13C, were recorded on a Bruker ARK400 spectrometer. BAA microscopy screening in cells for organelle specificity and signal-to-background ratio was completed with an Axio Zeiss Light Microscope and 63× oil immersion objective.
Fluorescence Properties and Quantum Yield Measurements. Spectroscopic characterizations were performed in anhydrous DMSO in polystyrene 96 well plate. Analysis included the maximum absorbance wavelength, maximum fluorescence emission wavelength, full-width-at half max, and quantum yield. Quantum yields (φfl) were determined by comparing the area under the emission spectrum of the BAA compound to a reference fluorophore solution at three concentrations using equation 1, where Grad represents the gradient from the plots of integrated fluorescence intensity vs absorbance at three concentrations and q is the refractive index of the solvent. Fluorescein in 0.1 M NaOH (φfl=0.91)^3 was the reference for samples with a max absorbance up to 510 nm, where an excitation of 470 nm was used with the emission integrated between 490 to 800 nm. Rhodamine B in ethanol (φfl=0.70) was the reference for samples with a max absorbance between 511-595 nm, where an excitation of 525 nm was used with the emission integrated between 545 to 800 nm. Cresyl violet in methanol (φfl=0.54)^4 was the reference for samples with a max absorbance above 595 nm, where an excitation of 570 nm was used with the emission integrated between 590 to 800 nm.

[1] = anhydrous DMSO, polystyrene 96 well plate
[2] = anhydrous DMSO, relative to reference fluorophore at three concentrations

| Compound | Stokes Shift (anhydrous DMSO) | λmax ABS [1] | λmax EM [1] | FWHM (full-width-at half max) (anhydrous DMSO, emission) | φfl (quantum yield) [2] | FWHM (full-width-at half max) | Stokes Shift | λmax ABS | λmax EM | φfl (quantum yield) |
| --- | --- | --- | --- | --- | --- | --- | --- | --- | --- | --- |
| COc1ccc2c(/C=C(/CC(=O)O)c3ccc4n3[B-](F)(F)[N+]3=C(/C=C/c5c(Cl)ncc6cc(OC)ccc56)C=C(C)C3=C4)c(Cl)ncc2c1 [BAA-1b] | 17 nm | 580 nm | 597 nm | 40 | 0.62 |  |  |  |  |  |
| COc1cc(/C=C/C2=[N+]3C(=Cc4ccc(CCC(=O)O)n4[B-]3(F)F)C(C)=C2)cc(I)c1OC [BAA-3a] | 10 nm | 569 nm | 579 nm | 31 | 0.61 |  |  |  |  |  |
| COc1cc(/C=C(/CC(=O)O)c2ccc3n2[B-](F)(F)[N+]2=C(/C=C/c4cc(I)c(OC)c(OC)c4)C=C(C)C2=C3)cc(I)c1OC [BAA-3b] | 13 nm | 574 nm | 587 nm | 34 | 0.70 |  |  |  |  |  |
| CC1=CC(/C=C/c2ccccc2N2CCN(C)CC2)=[N+]2C1=Cc1ccc(CCC(=O)O)n1[B-]2(F)F [BAA-4a] | 19 nm | 581 nm | 600 nm | 56 | 0.43 |  |  |  |  |  |
| COc1cc(OC)c(/C=C/C2=[N+]3C(=Cc4ccc(CCC(=O)O)n4[B-]3(F)F)C(C)=C2)c(OC)c1 [BAA-5a] | 23 nm | 592 nm | 615 nm | 47 | 0.83 |  |  |  |  |  |
| COc1ccc2c(c1)C(/C=C/C1=[N+]3C(=Cc4ccc(CCC(=O)O)n4[B-]3(F)F)C(C)=C1)C=N2 (stereo not drawn) [BAA-6a] | 34 nm | 609 nm | 643 nm | 64 | 0.18 |  |  |  |  |  |
| COc1ccc(/C=C/C2=[N+]3C(=Cc4ccc(CCC(=O)O)n4[B-]3(F)F)C(C)=C2)c(OC)c1C [BAA-7a] | 18 nm | 582 nm | 600 nm | 63 | 0.29 |  |  |  |  |  |
| COc1ccc(/C=C(/CC(=O)O)c2ccc3n2[B-](F)(F)[N+]2=C(/C=C/c4ccc(OC)c(C)c4OC)C=C(C)C2=C3)c(OC)c1C [BAA-7b] | 19 nm | 581 nm | 600 nm | 56 | 0.43 |  |  |  |  |  |
| COc1ccc(/C=C/C2=[N+]3C(=Cc4ccc(CCC(=O)O)n4[B-]3(F)F)C(C)=C2)c2ccccc12 [BAA-8a] | 29 nm | 594 nm | 623 nm | 61 | 0.50 |  |  |  |  |  |
| COc1ccc(B(O)O)c(/C=C/C2=[N+]3C(=Cc4ccc(CCC(=O)O)n4[B-]3(F)F)C(C)=C2)c1 [BAA-9a] | 10 nm | 569 nm | 579 nm | 32 | 0.35 |  |  |  |  |  |
| CCN(CC)c1ccc(/C=C(/CC(=O)O)c2ccc3n2[B-](F)(F)[N+]2=C(/C=C/c4ccc(N(CC)CC)cc4)C=C(C)C2=C3)cc1 [BAA-10b] | 82 nm | 632 nm | 714 nm | 102 | 0.01 |  |  |  |  |  |
| CCCSc1ncc(/C=C/C2=[N+]3C(=Cc4ccc(CCC(=O)O)n4[B-]3(F)F)C(C)=C2)cn1 [BAA-12a] | 27 nm | 589 nm | 616 nm | 88 | 0.10 |  |  |  |  |  |
| COc1ccc(/C=C/C2=[N+]3C(=Cc4ccc(CCC(=O)O)n4[B-]3(F)F)C(C)=C2)cc1F [BAA-13a] | 10 nm | 576 nm | 586 nm | 44 | 0.19 |  |  |  |  |  |
| CC1=CC(/C=C/c2ccc(CC(C)C)s2)=[N+]2C1=Cc1ccc(CCC(=O)O)n1[B-]2(F)F [BAA-14a] | 13 nm | 594 nm | 607 nm | 70 | 0.44 |  |  |  |  |  |
| C=CCc1cc(/C=C/C2=[N+]3C(=Cc4ccc(CCC(=O)O)n4[B-]3(F)F)C(C)=C2)ccc1OC [BAA-15a] | 16 nm | 581 nm | 597 nm | 39 | 0.42 |  |  |  |  |  |
| CC1=CC(/C=C/c2cc(C)c(C)cc2C)=[N+]2C1=Cc1ccc(CCC(=O)O)n1[B-]2(F)F [BAA-16a] | 58 nm | 552 nm | 610 nm | 78 | 0.22 |  |  |  |  |  |
| CC1=CC(/C=C/c2ccc(-c3ccccc3)cc2)=[N+]2C1=Cc1ccc(CCC(=O)O)n1[B-]2(F)F [BAA-17a] |  |  |  |  |  | 42 | 12 nm | 579 nm | 591 nm | 0.59 |
| CC1=CC(/C=C/c2ccc(OCc3ccccc3)cc2)=[N+]2C1=Cc1ccc(CCC(=O)O)n1[B-]2(F)F [BAA-18a] | 16 nm | 577 nm | 593 nm | 37 | 0.65 |  |  |  |  |  |
| CC1=CC(/C=C/c2ccc(-c3cccs3)cc2)=[N+]2C1=Cc1ccc(CCC(=O)O)n1[B-]2(F)F [BAA-19a] | 13 nm | 582 nm | 595 nm | 35 | 0.64 |  |  |  |  |  |
| CCSc1ncc(/C=C/C2=[N+]3C(=Cc4ccc(CCC(=O)O)n4[B-]3(F)F)C(C)=C2)cn1 [BAA-20a] | 8 nm | 577 nm | 585 nm | 31 | 0.15 |  |  |  |  |  |
| COc1cc(OCc2ccccc2)ccc1/C=C/C1=[N+]2C(=Cc3ccc(CCC(=O)O)n3[B-]2(F)F)C(C)=C1 [BAA-21a] | 26 nm | 585 nm | 611 nm | 46 | 0.51 |  |  |  |  |  |
| COc1cc(OCc2ccccc2)ccc1/C=C(/CC(=O)O)c1ccc2n1[B-](F)(F)[N+]1=C(/C=C/c3ccc(OCc4ccccc4)cc3OC)C=C(C)C1=C2 [BAA-21b] | 20 nm | 588 nm | 608 nm | 50 | 0.54 |  |  |  |  |  |
| COc1cc(/C=C/C2=[N+]3C(=Cc4ccc(CCC(=O)O)n4[B-]3(F)F)C(C)=C2)ccc1OCc1ccc(F)cc1 [BAA-22a] | 17 nm | 585 nm | 602 nm | 49 | 0.39 |  |  |  |  |  |
| COc1cc(/C=C(/CC(=O)O)c2ccc3n2[B-](F)(F)[N+]2=C(/C=C/c4ccc(OCc5ccc(F)cc5)c(OC)c4)C=C(C)C2=C3)ccc1OCc1ccc(F)cc1 [BAA-22b] | 19 nm | 582 nm | 601 nm | 46 | 0.27 |  |  |  |  |  |
| CC1=CC(/C=C/c2ccc(-c3ccc(C(F)(F)F)cn3)cc2)=[N+]2C1=Cc1ccc(CCC(=O)O)n1[B-]2(F)F [BAA-23a] | 11 nm | 592 nm | 603 nm | 30 | 0.23 |  |  |  |  |  |
| CC1=CC(/C=C/c2ccc(-c3ccc(C(F)(F)F)cn3)cc2)=[N+]2C1=Cc1ccc(/C(=C\c3ccc(-c4ccc(C(F)(F)F)cn4)cc3)CC(=O)O)n1[B-]2(F)F [BAA-23b] | 8 nm | 580 nm | 588 nm | 32 | 0.19 |  |  |  |  |  |
| CC1=CC(/C=C/c2cccc(I)c2)=[N+]2C1=Cc1ccc(/C(=C\c3cccc(I)c3)CC(=O)O)n1[B-]2(F)F [BAA-24b] | 9 nm | 570 nm | 579 nm | 32 | 0.29 |  |  |  |  |  |
| CC1=CC(/C=C/c2ccc(Oc3ccc(Cl)cc3)cc2)=[N+]2C1=Cc1ccc(/C(=C\c3ccc(Oc4ccc(Cl)cc4)cc3)CC(=O)O)n1[B-]2(F)F [BAA-27b] | 13 nm | 575 nm | 588 nm | 35 | 0.33 |  |  |  |  |  |
| CC1=CC(/C=C/c2cc(Cl)ccc2Cl)=[N+]2C1=Cc1ccc(/C(=C\c3cc(Cl)ccc3Cl)CC(=O)O)n1[B-]2(F)F [BAA-29b] | 11 nm | 569 nm | 580 nm | 37 | 0.13 |  |  |  |  |  |
| CC1=CC(C=Cc2cn(CCC(=O)O)c3ccccc23)=[N+]2C1=Cc1ccc(CCC(=O)O)n1[B-]2(F)F [BAA-30a] | 36 nm | 607 nm | 643 nm | 58 | 0.43 |  |  |  |  |  |
